Data published in patent publication US9284333B2, “Fused pyrroledicarboxamides and their use as pharmaceuticals” (SANOFI, priority 2012, dated 2016).

Target: Human TASK-1 channels (Homo sapiens (Human), UniProt O14649)
Experiment: Determination of the activity on the TASK-1 channel in Xenopus oocytes (two-microelectrode voltage clamp)
Type: cell-based
Details: compound concentration 5 μM
Protocol: Determination of the activity on the TASK-1 channel in Xenopus oocytes
Human TASK-1 channels were expressed in Xenopus oocytes. For this purpose, oocytes were isolated from Xenopus laevis and defoliculated. Subsequently, TASK-1-encoding RNA synthesized in vitro was injected into the oocytes. After two days of TASK-1 protein expression, TASK-1 currents were measured by two-microelectrode voltage clamp. Data were acquired and analyzed using a TEC-10cx amplifier (NPI Electronic, Tamm, Germany) connected to an ITC-16 interface (Instrutech Corp., Long Island, USA) and Pulse software (HEKA Elektronik, Lambrecht, Germany). Oocytes were clamped to −90 mV and TASK-1 mediated currents were measured during 500 ms voltage pulses to 40 mV. Oocytes were continuously superfused with ND96 buffer containing 96 mM sodium chloride, 2 mM potassium chloride, 1.8 mM calcium chloride, 1 mM magnesium chloride, 5 mM 4-(2-hydroxyethyl)-piperazine-1-ethanesulfonic acid (HEPES; pH adjusted to 7.4 with sodium hydroxide). All experiments were performed at room temperature. Test compounds were consecutively added to the bath solution at rising concentrations. Compound effects were calculated as the percentage inhibition of TASK-1 control current before compound addition. IC50 values were obtained by fitting the data to the general dose-response equation.

Human TASK-1 channels, sequence (O14649 whole entry): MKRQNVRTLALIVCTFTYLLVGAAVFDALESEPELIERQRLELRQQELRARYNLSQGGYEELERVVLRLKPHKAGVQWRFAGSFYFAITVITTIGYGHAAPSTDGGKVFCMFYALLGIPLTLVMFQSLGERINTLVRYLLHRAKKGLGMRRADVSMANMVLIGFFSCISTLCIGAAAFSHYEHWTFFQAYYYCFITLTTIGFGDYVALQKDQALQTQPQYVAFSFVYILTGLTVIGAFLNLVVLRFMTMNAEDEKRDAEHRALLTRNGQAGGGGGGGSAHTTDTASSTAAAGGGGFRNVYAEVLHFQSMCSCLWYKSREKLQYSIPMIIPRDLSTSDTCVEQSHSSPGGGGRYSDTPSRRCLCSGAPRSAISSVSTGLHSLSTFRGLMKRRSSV

inhibition at 5 µM [%] | SMILES
78 | C[C@H]1CCCN1C(=O)c1cc(C(=O)NCc2c(F)cc(F)cc2F)c2n1CCOC2 [16af, 6-((S)-2-Methyl-pyrrolidine-1-carbonyl)-3,4-dihydro-1H-pyrrolo[2,1-c][1,4]oxazine-8-carboxylic acid 2,4,6-trifluoro-benzylamide]
86 | CC(C)[C@@H](NC(=O)c1cc(C(=O)NCc2ncco2)c2n1CCOC2)c1ccc(F)cc1 [16ll, 3,4-Dihydro-1H-pyrrolo[2,1-c][1,4]oxazine-6,8-dicarboxylic acid 6-{[(R)-1-(4-fluoro-phenyl)-2-methyl-propyl]-amide} 8-[(oxazol-2-ylmethyl)-amide]]

Same assay, conditions: human TASK-1 expressed in Xenopus oocytes, room temperature; read-out: IC50 value for TASK-1 inhibition

SMILES | IC50 [nM]
CC[C@@H](NC(=O)c1cc(C(=O)N2CCC[C@@H]2C)n2c1COCC2)c1ccc(C(F)(F)F)cc1C(F)(F)F [16cp, 6-((S)-2-Methyl-pyrrolidine-1-carbonyl)-3,4-dihydro-1H-pyrrolo[2,1-c][1,4]oxazine-8-carboxylic acid [(R)-1-(2,4-bis-trifluoromethyl-phenyl)-propyl]-amide] | 970
CC[C@@H](NC(=O)c1cc(C(=O)N[C@H](CC)c2cccc(NS(C)(=O)=O)c2)n2c1COCC2)c1ccccc1 [16ri, 3,4-Dihydro-1H-pyrrolo[2,1-c][1,4]oxazine-6,8-dicarboxylic acid 6-{[(R)-1-(3-methanesulfonylamino-phenyl)-propyl]-amide} 8-[((R)-1-phenyl-propyl)-amide]] | 4300
CC[C@@H](NC(=O)c1cc(C(=O)N(C)[C@@H](C)C(=O)NC(C)C)n2c1COCC2)c1ccccc1 [16rl] | 4500
C[C@H]1CCCN1C(=O)c1cc(C(=O)N[C@@H]2CCc3nc(C(F)(F)F)ccc32)c2n1CCOC2 (racemic) [16cv, 6-((S)-2-Methyl-pyrrolidine-1-carbonyl)-3,4-dihydro-1H-pyrrolo[2,1-c][1,4]oxazine-8-carboxylic acid ((R)-2-trifluoromethyl-6,7-dihydro-5H-[1]pyrindin-5-yl)-amide] | 900
CC[C@@H](NC(=O)c1cc(C(=O)N[C@H](C)c2ccc(F)cc2)n2c1COCC2)c1cccnc1C(F)(F)F [16dt, 3,4-Dihydro-1H-pyrrolo[2,1-c][1,4]oxazine-6,8-dicarboxylic acid 6-{[(R)-1-(4-fluoro-phenyl)-ethyl]-amide} 8-{[(R)-1-(2-trifluoromethyl-pyridin-3-yl)-propyl]-amide}] | 1000
CC[C@@H](NC(=O)c1cc(C(=O)N[C@H](CC)c2cccc(S(C)(=O)=O)c2)n2c1COCC2)c1ccccc1 [16jh, 3,4-Dihydro-1H-pyrrolo[2,1-c][1,4]oxazine-6,8-dicarboxylic acid 6-{[(R)-1-(3-methanesulfonyl-phenyl)-propyl]-amide}-8-[((R)-1-phenyl-propyl)-amide]] | 780
CC[C@@H](NC(=O)c1cc(C(=O)N2CCCC2C(C)C)n2c1COCC2)c1ccccc1 (stereo partly drawn) [16el, 6-(2-Isopropyl-pyrrolidine-1-carbonyl)-3,4-dihydro-1H-pyrrolo[2,1-c][1,4]oxazine-8-carboxylic acid ((R)-1-phenyl-propyl)-amide] | 380
CC[C@@H](NC(=O)c1cc(C(=O)N[C@H](c2ccc(F)cc2)C2CC2)n2c1COCC2)c1ccccc1 [16ik, 3,4-Dihydro-1H-pyrrolo[2,1-c][1,4]oxazine-6,8-dicarboxylic acid 6-{[(S)-cyclopropyl-(4-fluoro-phenyl)-methyl]-amide} 8-[((R)-1-phenyl-propyl)-amide]] | 710
C[C@H]1CCCN1C(=O)c1cc(C(=O)NCc2c(F)cccc2F)c2n1CCOC2 [16y, 6-((S)-2-Methyl-pyrrolidine-1-carbonyl)-3,4-dihydro-1H-pyrrolo[2,1-c][1,4]oxazine-8-carboxylic acid 2,6-difluoro-benzylamide] | 1000

Second part, the compound after the results:

IC50 [nM] | SMILES
100 | CC[C@@H](NC(=O)c1cc(C(=O)N2CCC[C@@H]2C)c2n1CSC2)c1ccccc1 [16kx, 7-((S)-2-Methyl-pyrrolidine-1-carbonyl)-1H-pyrrolo[1,2-c]thiazole-5-carboxylic acid ((R)-1-phenyl-propyl)-amide]
200 | CC[C@@H](NC(=O)c1cc(C(=O)N2CCC[C@@H]2C)c2n1CCOC2)c1ccccc1 [16ki, 8-((S)-2-Methyl-pyrrolidine-1-carbonyl)-3,4-dihydro-1H-pyrrolo[2,1-c][1,4]oxazine-6-carboxylic acid ((R)-1-phenyl-propyl)-amide]
330 | CC[C@@H](NC(=O)c1cc(C(=O)NCc2cccc(C(=O)OC)c2)n2c1COCC2)c1ccccc1 [16iq, 3-({[8-((R)-1-Phenyl-propylcarbamoyl)-3,4-dihydro-1H-pyrrolo[2,1-c][1,4]oxazine-6-carbonyl]-amino}-methyl)-benzoic acid methyl ester]
380 | CC[C@@H](NC(=O)c1cc(C(=O)N2CCC[C@@H]2COC)n2c1COCC2)c1ccccc1 [16eo, 6-((R)-2-Methoxymethyl-pyrrolidine-1-carbonyl)-3,4-dihydro-1H-pyrrolo[2,1-c][1,4]oxazine-8-carboxylic acid ((R)-1-phenyl-propyl)-amide]
350 | CC[C@@H](NC(=O)c1cc(C(=O)N2CCC[C@@H]2C)n2c1COCC2)c1ccc(SC(F)(F)F)cc1 [16ax, 6-((S)-2-Methyl-pyrrolidine-1-carbonyl)-3,4-dihydro-1H-pyrrolo[2,1-c][1,4]oxazine-8-carboxylic acid [(R)-1-(4-trifluoromethylsulfanyl-phenyl)-propyl]-amide]
310 | CCC(NC(=O)c1cc(C(=O)N2CCCC2)n2c1COCC2)c1ccccc1OC(F)F (stereo not shown) [16cz, 6-(Pyrrolidine-1-carbonyl)-3,4-dihydro-1H-pyrrolo[2,1-c][1,4]oxazine-8-carboxylic acid [1-(2-difluoromethoxy-phenyl)-propyl]-amide]
290 | CC[C@@H](NC(=O)c1cc(C(=O)N2CCC[C@@H]2C)c2n1CCOC2)c1ccccc1C(F)(F)F [16ni, 8-((S)-2-Methyl-pyrrolidine-1-carbonyl)-3,4-dihydro-1H-pyrrolo[2,1-c][1,4]oxazine-6-carboxylic acid [(R)-1-(2-trifluoromethyl-phenyl)-propyl]-amide]
150 | C[C@H]1CCCN1C(=O)c1cc(C(=O)NCc2c(F)cccc2Cl)c2n1CCOC2 [16nu, 6-((S)-2-Methyl-pyrrolidine-1-carbonyl)-3,4-dihydro-1H-pyrrolo[2,1-c][1,4]oxazine-8-carboxylic acid 2-chloro-6-fluoro-benzylamide]
41 | CC[C@@H](NC(=O)c1cc(C(=O)N[C@H](CC)c2cnc(OC)cn2)n2c1COCC2)c1ccccc1 [16hy, 3,4-Dihydro-1H-pyrrolo[2,1-c][1,4]oxazine-6,8-dicarboxylic acid 6-{[(R)-1-(5-methoxy-pyrazin-2-yl)-propyl]-amide} 8-[((R)-1-phenyl-propyl)-amide]]
340 | CC[C@@H](NC(=O)c1cc(C(=O)NCC(C)C)n2c1COCC2)c1ccccc1 [16gf, 3,4-Dihydro-1H-pyrrolo[2,1-c][1,4]oxazine-6,8-dicarboxylic acid 6-isobutylamide 8-[((R)-1-phenyl-propyl)-amide]]
220 | CC[C@H](NC(=O)c1cc(C(=O)N[C@H](CC)c2ccccc2)n2c1COCC2)c1ncccn1 [16ke, 3,4-Dihydro-1H-pyrrolo[2,1-c][1,4]oxazine-6,8-dicarboxylic acid 6-[((R)-1-phenyl-propyl)-amide] 8-[((S)-1-pyrimidin-2-yl-propyl)-amide]]
